Patent US8624079B2, “Knockin mouse with a disruption in a PXR gene expressing human PXR” (ITI Scotland Limited, priority 2007, dated 2014)
“And” between values parts separate entries of the source, which are not always exact repeats. Identical values can stand only once.

What was measured:
[1] = wild-type, koPXR or koCAR mice; 40 mg/kg
Method: For the same animals, plasma levels of alanine aminotransferase (ALT), alkaline phosphatase (ALP) and aspartate aminotransferase (AST) were also measured (see FIG. 40). […] Both compounds were administered at 40 mg/kg.
Plasma levels of alanine aminotransferase (ALT), alkaline phosphatase (ALP) and aspartate aminotransferase (AST) were also measured (see FIG. 46).

liver [2] = assay: TUNEL labelling assay (hepatic in situ cell death); format: in vivo, mouse; conditions: WT, huPXR/huCAR and PXRKO/CARKO mice; PB 80 mg/kg ip daily for 4 days
From the text: However, no such consistency has been observed in mice. An indirect TUNEL labelling assay was used to analyse hepatic in situ death (FIG. 128/Table 4). The present study has shown a marker variation in apoptotic indices in mouse liver. Thus, small (e.g. 50%) compound-induced decreases, upon a low background, were not readily demonstrable.

Cyp2b10 [3] = assay: pentoxyresorufin-O-deethylation (PROD) and BROD activity assay in liver microsomes of treated mice; conditions: for BROD and PROD activities (Cyp2b10 / P450 induction): WT and huPXR/huCAR mice
liver cells = assay: BrdU incorporation in liver (hepatic cell proliferation, S-phase labelling index); format: in vivo, mouse; conditions: for % BrDu Positive Cells, % mean (of own control) / % BrDu Positive Cells, Mean / % BrDu Positive Cells (individual mouse): liver; for cell proliferation (BrdU positive cells): huPXR/huCAR or PXRKO/CARKO mice
Cyp3a11 [4] = assay: Cyp3a11 protein expression in liver microsomes of treated mice by SDS-PAGE and Western blotting; conditions: mouse, in vivo, 40 mg/kg
Method: (§1) Dosing solutions were prepared on the day of administration by adding corn oil to the requisite quantity of test substance and stirring to obtain a solution or fine suspension. The concentration of PCN was 10 mg/ml and Rif 2.5 mg/ml of supplied chemical, without any correction for purity. Records of preparation were retained.
The volume of vehicle and solutions of inducing agents administered was 10 ml/kg bodyweight. This route of administration was chosen for consistency with previously published work. […]
(§2) Quantification of Cyp3a11, Cyp2b10 and PXR protein in liver microsomes of all mice samples was carried out by SDS-PAGE and Western blotting. To detect murine and human PXR protein, an antibody (RF8) was employed. For the identification of Cyp3a and Cyp2b, […] were used, (CH32 and CH4, respectively).

Cyp1a1/1a2 and Cyp1b1 = assay: MROD and EROD activity in liver microsomes of treated mice; conditions: PB 80 mg/kg ip daily for 4 days
From the text: EROD activity is indicative of Cyp1a1/1a2 and Cyp1b1 in the mouse, whereas MROD is a substrate for Cyp1a2. However, other isoforms may be contributing to the measured activities. The results from the two enzyme assays are in reasonably good agreement with each other (FIG. 130a-b) As the Cyp1a2 gene is constitutively expressed, this may explain the basal levels of activity observed in both activity assays.

liver [5] = assay: H&E histopathology of liver and small intestine; format: in vivo, mouse
From the text: Two samples of the liver (one from the lobe, one from the median lobe) and one sample of the small intestine were taken and preserved in 4% neutral buffered formaldehyde (NBF). The preserved liver samples of all mice of all groups were trimmed, processed and embedded in paraffin. The paraffin-embedded samples were sent to Progenix, Inverkeithing, UK where they were sectioned at a nominal thickness of about 5 áem and then stained with haematoxylin and eosin (H&E). One section of each organ sample was examined by Dr. Ortwin Vogel, Consultant Pathologist, Kiel, Germany. Subsequent to his histopatholoical analysis of all H&E stained mouse livers and small intestines, Dr. Vogel reported the following finding;

[6] = Liver/body weight ratios (hepatomegaly); format: in vivo, mouse; conditions: PB 80 mg/kg ip daily for 4 days; for Body weight (g) - Day 5 / Liver weight / Liver/Body weight Ratio: Mean ± SD; for hepatomegaly: WT and huPXR/huCAR mice
From the text: Post operation all animals had no abnormalities detected.

Cyp2b10 [7] = assay: Cyp2b10 protein expression of treated mice by SDS-PAGE and Western blotting; conditions: for Cyp2b10 protein in pooled liver microsomes (Western blot): PB 80 mg/kg ip daily for 4 days
Method: as §1
Control animals were administered vehicle (corn oil) daily by intraperitoneal injection. The volume of vehicle and solutions of inducing agents administered was 10 ml/kg bodyweight. This route of administration was chosen for consistency with previously published work. […]
as §2

Cyp3a = assay: 7-benzyloxyquinoline (BQ) activity assay in liver microsomes of treated mice; conditions: PB 80 mg/kg ip daily for 4 days
Method: PXR activity was determined by measuring the metabolism of a number of cytochrome P450 substrates which are metabolised to different extents by different cytochrome P450 enzymes. The following assays were performed: • 7-benzyloxyquinoline (BQ) activity was determined in liver microsomes. • Testosterone hydroxylase activity was determined in liver microsomes (LMS HPLC-006). • The specific activities of these reactions was expressed per mg protein as determined using the Lowry assay (LMS Spec-0001).

Cyp3a11 and Cyp2b10 = assay: Comparative induction study in PXR/CAR humanised and knockout panel (Cyp3a11, Cyp2b10 protein, BQ and PROD activity); conditions: mice in which CAR had been knocked out; 40 mg/kg
From the text: The effects of phenobarbital on Cyp3a11 and Cyp2b10 induction were compared in wild type, huPXR, koPXR, huCAR, koCAR, huPXR/huCAR, koPXR/koCAR huPXR/koCAR and koPXR/huCAR mice (see FIG. 87).

[8] = wild type mice; rifampicin 10 mg/kg per day for 3 days before midazolam
Cyp3a11 [9] = assay: Midazolam metabolism in koCyp3a11 mice; conditions: male koCyp3a11 mice compared to male wild type mice
From the text: The also inventors studied the pharmacokinetics of midazolam (MDZ; metabolisation to form 1-hydroxymidazolam) in male koCyp3a11 mice, in comparison to male wild type mice.

[10] = PXRKO/CARKO mice, PB 80 mg/kg ip daily for 4 days, listed as PB
[11] = PB 80 mg/kg ip daily for 4 days
[12] = PB 80 mg/kg ip daily for 4 days, listed as PB
[13] = PXRKO/CARKO mice, PB 80 mg/kg ip daily for 4 days
[14] = WT mice, PB 80 mg/kg ip daily for 4 days
[15] = huPXR/huCAR mice, PB 80 mg/kg ip daily for 4 days

CCC1(c2ccccc2)C(=O)NC(=O)NC1=O [phenobarbital, Phenobarbital]
hepatotoxicity (liver/body weight ratio, plasma ALT, ALP, AST) [1]: No hepatotoxicity was detected
hepatic apoptotic indices (TUNEL), PB-treated vs control (liver [2]): no statistical significance found
PROD or BROD activities (Cyp2b10 / P450 induction) (Cyp2b10 [3]; [10]): not altered
BROD and PROD activities (Cyp2b10 / P450 induction) (Cyp2b10 [3]; [11]): led to both hepatomegaly and P450 induction
BROD and PROD activities (Cyp2b10 / P450 induction) (Cyp2b10 [3]; [12]): marker Cyp2b10 induction was observed, at similar levels
% BrDu Positive Cells, % mean (of own control) (liver cells; [13]): 144%
% BrDu Positive Cells, Mean (liver cells; [13]): 2.83%
% BrDu Positive Cells (individual mouse) (liver cells; [10]): 2.16% and 1.98% and 1.82% and 2.30% and 3.77% and 5.10% and 3.71% and 1.88% and 3.06% and 2.51%
increase of hepatocellular labelling index (S-phase) (liver cells; [14]): approximately 5 fold
% BrDu Positive Cells, % mean (of own control) (liver cells; [14]): 531%
% BrDu Positive Cells, Mean (liver cells; [14]): 9.30%
% BrDu Positive Cells (individual mouse) (liver cells; WT mice, PB 80 mg/kg ip daily for 4 days, listed as PB): 9.45% and 5.54% and 16.69% and 6.32% and 9.50% and 8.09% and 7.64% and 13.60%
% BrDu Positive Cells, % mean (of own control) (liver cells; [15]): 104%
% BrDu Positive Cells, Mean (liver cells; [15]): 2.00%
% BrDu Positive Cells (individual mouse) (liver cells; huPXR/huCAR mice, PB 80 mg/kg ip daily for 4 days, listed as PB): 0.37% and 0.-18% and 1.19% and 1.86% and 3.GO and 1.98% and 3.18% and 3.24% and 2.13%
cell proliferation (BrdU positive cells) (liver cells; [11]): No increase in BrdU positive cells was observed
cell proliferation (BrdU positive cells) (liver cells; [12]): appeared to have no effect on cell proliferation
hepatocellular proliferation (% BrdU-positive cells) (liver cells; wild-type mice, phenobarbital vs unexposed control): hepatocellular proliferation only in wild-type mice
Cyp3a11 expression in liver (Western blot) (Cyp3a11 [4]): significantly reduced
MROD and EROD enzyme activities (Cyp1a1/1a2 and Cyp1b1; PXRKO/CARKO line): no increase
MROD and EROD enzyme activities (Cyp1a1/1a2 and Cyp1b1; WT and huPXR/huCAR mice): increased
hepatocellular hypertrophy (H&E, microscopic) (liver [5]; [13]): no unequivocal evidence of a hepatocellular hypertrophy
pathological evidence in liver (pathologist's conclusion) (liver [5]; PXRKO/CARKO strain, PB 80 mg/kg/4days/IP): Evidence of hepatocellular hyperplasia occurred
pathological evidence in liver (pathologist's conclusion) (liver [5]; WT and huPXR/huCAR strain, PB 80 mg/kg/4days/IP): pathological evidence of a hepatocellular hypertrophy/hyperplasia
mitotic figures indicating hepatocellular proliferation (H&E) (liver [5]; WT, huPXR/huCAR and PXRKO/CARKO mice, PB 80 mg/kg ip daily for 4 days): noted mainly in PB-treated WT mice
microscopic findings in the small intestine (liver [5]; all mouse lines, PB 80 mg/kg/4days/IP): No microscopic findings were recorded in the small intestine
hepatocellular hypertrophy (H&E, microscopic) (liver [5]; huPXR/huCAR and WT mice, PB 80 mg/kg ip daily for 4 days): slight to moderate centrilobular hepatocellular hyperthrophy
Body weight - Day 5 (% mean own control ± % SD) ([6]; PXRKO/CARKO mice): (98 ± 8) %
Liver weight (% mean own control ± % SD) ([6]; PXRKO/CARKO mice): (98 ± 16) %
Liver/Body weight Ratio (% mean own control ± % SD) ([6]; PXRKO/CARKO mice): (100 ± 9) %
Body weight (g) - Day 5 ([6]; PXRKO/CARKO mice): 26.6 ± 2.2 g
Liver weight ([6]; PXRKO/CARKO mice): 1.42 ± 0.23 g
Liver/Body weight Ratio ([6]; PXRKO/CARKO mice): 5.3 ± 0.4
hepatomegaly [6]: led to both hepatomegaly and P450 induction
hepatomegaly ([6]; listed as PB): observed
Body weight - Day 5 (% mean own control ± % SD) ([6]; WT mice): (84 ± 5) %
Liver weight (% mean own control ± % SD) ([6]; WT mice): (101 ± 6) %
Body weight (g) - Day 5 ([6]; WT mice): 23.2 ± 1.3 g
Liver weight ([6]; WT mice): 1.44 ± 0.09 g
Liver/Body weight Ratio ([6]; WT mice): 6.2 ± 0.2
Body weight - Day 5 (% mean own control ± % SD) ([6]; huPXR/huCAR mice): (99 ± 6) %
Liver weight (% mean own control ± % SD) ([6]; huPXR/huCAR mice): (121 ± 11) %
Body weight (g) - Day 5 ([6]; huPXR/huCAR mice): 25.4 ± 1.5 g
Liver weight ([6]; huPXR/huCAR mice): 1.69 ± 0.16 g
Liver/Body weight Ratio ([6]; huPXR/huCAR mice): 6.7 ± 0.6
Cyp2b10 protein in pooled liver microsomes (Western blot) (Cyp2b10 [7]; PXRKO/CARKO mice): not in the PXRKO/CARKO animals
Cyp2b10 protein in pooled liver microsomes (Western blot) (Cyp2b10 [7]; WT and huPXR/huCAR mice): induced
Cyp2b10 expression in liver (Western blot) (Cyp2b10 [7]; koCAR mice, 40 mg/kg): significantly reduced
Cyp2b10 expression (Western blot and PROD activity, liver) (Cyp2b10 [7]; wild-type and huCAR mice, 40 mg/kg): induced Cyp2b10 expression both in the wild-type and in huCAR mice
Cyp3a11 induction (BQ activity) (Cyp3a; PXRKO/CARKO mice): absence of Cyp3a11 induction
increase in BQ activity (Cyp3a; WT mice): marginal increase
increase in BQ activity (Cyp3a; huPXR/huCAR mice): 5 fold
induction of Cyp3a11 and Cyp2b10 protein expression or activity in the BQ and PROD assays (Cyp3a11 and Cyp2b10): Little or no induction

CO[C@H]1/C=C/O[C@@]2(C)Oc3c(C)c(O)c4c(O)c(c(/C=N/N5CCN(C)CC5)c(O)c4c3C2=O)NC(=O)/C(C)=C\C=C\[C@H](C)[C@H](O)[C@@H](C)[C@@H](O)[C@@H](C)[C@H](OC(C)=O)[C@@H]1C [rifampicin]
effect of rifampicin pre-treatment on midazolam pharmacokinetics [8]: no significant effect was observed
induction of Cyp2b10 activity (Cyp2b10 [3]; wild-type or huPXR mice, rifampicin): did not induce
induction of Cyp2b10 expression (Cyp2b10 [7]; mouse, in vivo): did not induce
induction of Cyp2b10 expression and PROD activity (Cyp2b10 [7]; mouse, in vivo): only in the huPXR.1 mouse, but not in the wild type or in the huPXR mouse
induction of Cyp2b10 protein (Western blot) (Cyp2b10 [7]; mouse, in vivo, ip): not markedly induced

Cc1ncc2n1-c1ccc(Cl)cc1C(c1ccccc1F)=NC2 [midazolam]
1-hydroxymidazolam formation (Cyp3a11 [9]): significantly reduced
